Measurements from ChEMBL document CHEMBL4680163, “Discovery of potent epidermal growth factor receptor (EGFR) degraders by proteolysis targeting chimera (PROTAC)” (Eur J Med Chem, 2020).
Active and inactive are the calls of the source. No cut-off for these calls is given here.

How the values were obtained:
HCC827 [1] = assay: Antiproliferative activity against human HCC827 cells harboring EGFRDel19 mutant assessed as reduction in cell viability incubated for 72 hrs by MTT assay; assay type: functional, cell-based; settings: HCC827, 72 h
HCC827 [2] = assay: Induction of cell cycle arrest in human HCC827 cells assessed as accumulation in S phase at 1 uM incubated for 32 hrs by PI staining based flow cytometry analysis (reference value: 41.26 %); assay type: functional
HCC827 [3] = assay: Induction of apoptosis in human HCC827 cells assessed as necrotic cells at 1 uM incubated for 32 hrs by annexin V-FITC and PI staining based flow cytometry analysis (reference value: 7.12 %); assay type: functional
HCC827 [4] = assay: Induction of cell cycle arrest in human HCC827 cells assessed as accumulation in G2 phase at 0.1 uM incubated for 32 hrs by PI staining based flow cytometry analysis (reference value: 8.25 %); assay type: functional
HCC827 [5] = assay: Induction of cell cycle arrest in human HCC827 cells assessed as accumulation in G1 phase at 0.1 uM incubated for 32 hrs by PI staining based flow cytometry analysis (reference value: 50.48 %); assay type: functional
HCC827 [6] = assay: Induction of apoptosis in human HCC827 cells assessed as early apoptotic cells at 0.1 uM incubated for 32 hrs by annexin V-FITC and PI staining based flow cytometry analysis (reference value: 2.31 %); assay type: functional
HCC827 [7] = assay: Induction of cell cycle arrest in human HCC827 cells assessed as accumulation in S phase at 0.1 uM incubated for 32 hrs by PI staining based flow cytometry analysis (reference value: 41.26 %); assay type: functional
HCC827 [8] = assay: Induction of apoptosis in human HCC827 cells assessed as viable cells at 1 uM incubated for 32 hrs by annexin V-FITC and PI staining based flow cytometry analysis (reference value: 72.15 %); assay type: functional; settings: read-out: Activity
HCC827 [9] = assay: Induction of apoptosis in human HCC827 cells assessed as late apoptotic cells at 1 uM incubated for 32 hrs by annexin V-FITC and PI staining based flow cytometry analysis (reference value: 18.02%); assay type: functional
HCC827 [10] = assay: Induction of apoptosis in human HCC827 cells assessed as early apoptotic cells at 1 uM incubated for 32 hrs by annexin V-FITC and PI staining based flow cytometry analysis (reference value: 2.72%); assay type: functional
HCC827 [11] = assay: Induction of cell cycle arrest in human HCC827 cells assessed as accumulation in G2 phase at 1 uM incubated for 32 hrs by PI staining based flow cytometry analysis (reference value: 8.25 %); assay type: functional
[12] = molecular target: Epidermal growth factor receptor (Homo sapiens) (UniProt P00533); assay: Inhibition of EGFR in human HCC827 cells assessed as reduction in EGFR phosphorylation incubated for 36 hrs by Western blot analysis; assay type: cell-based; settings: dose 0.1-1 µM
HCC827 [13] = assay: Induction of apoptosis in human HCC827 cells assessed as late apoptotic cells at 0.1 uM incubated for 32 hrs by annexin V-FITC and PI staining based flow cytometry analysis (reference value: 14.23 %); assay type: functional
HCC827 [14] = assay: Induction of apoptosis in human HCC827 cells assessed as viable cells at 0.1 uM incubated for 32 hrs by annexin V-FITC and PI staining based flow cytometry analysis (reference value: 76.79 %); assay type: functional; settings: read-out: Activity
HCC827 [15] = assay: Induction of cell cycle arrest in human HCC827 cells assessed as accumulation in G1 phase at 1 uM incubated for 32 hrs by PI staining based flow cytometry analysis (reference value: 50.48 %); assay type: functional
HCC827 [16] = assay: Induction of apoptosis in human HCC827 cells assessed as necrotic cells at 0.1 uM incubated for 32 hrs by annexin V-FITC and PI staining based flow cytometry analysis (reference value: 6.68 %); assay type: functional
A-431 = assay: Antiproliferative activity against human A-431 cells harboring EGFR assessed as reduction in cell viability incubated for 72 hrs by MTT assay; assay type: functional, cell-based; settings: A-431, 72 h
A549 = assay: Antiproliferative activity against human A549 cells harboring EGFR assessed as reduction in cell viability incubated for 72 hrs by MTT assay; assay type: functional, cell-based; settings: A549, 72 h
NCI-H1975 = assay: Antiproliferative activity against human NCI-H1975 cells harboring EGFR L858/T790M mutant assessed as reduction in cell viability incubated for 72 hrs by MTT assay; assay type: functional, cell-based; settings: NCI-H1975, 72 h

Sequence of Epidermal growth factor receptor (Homo sapiens) (P00533 whole entry): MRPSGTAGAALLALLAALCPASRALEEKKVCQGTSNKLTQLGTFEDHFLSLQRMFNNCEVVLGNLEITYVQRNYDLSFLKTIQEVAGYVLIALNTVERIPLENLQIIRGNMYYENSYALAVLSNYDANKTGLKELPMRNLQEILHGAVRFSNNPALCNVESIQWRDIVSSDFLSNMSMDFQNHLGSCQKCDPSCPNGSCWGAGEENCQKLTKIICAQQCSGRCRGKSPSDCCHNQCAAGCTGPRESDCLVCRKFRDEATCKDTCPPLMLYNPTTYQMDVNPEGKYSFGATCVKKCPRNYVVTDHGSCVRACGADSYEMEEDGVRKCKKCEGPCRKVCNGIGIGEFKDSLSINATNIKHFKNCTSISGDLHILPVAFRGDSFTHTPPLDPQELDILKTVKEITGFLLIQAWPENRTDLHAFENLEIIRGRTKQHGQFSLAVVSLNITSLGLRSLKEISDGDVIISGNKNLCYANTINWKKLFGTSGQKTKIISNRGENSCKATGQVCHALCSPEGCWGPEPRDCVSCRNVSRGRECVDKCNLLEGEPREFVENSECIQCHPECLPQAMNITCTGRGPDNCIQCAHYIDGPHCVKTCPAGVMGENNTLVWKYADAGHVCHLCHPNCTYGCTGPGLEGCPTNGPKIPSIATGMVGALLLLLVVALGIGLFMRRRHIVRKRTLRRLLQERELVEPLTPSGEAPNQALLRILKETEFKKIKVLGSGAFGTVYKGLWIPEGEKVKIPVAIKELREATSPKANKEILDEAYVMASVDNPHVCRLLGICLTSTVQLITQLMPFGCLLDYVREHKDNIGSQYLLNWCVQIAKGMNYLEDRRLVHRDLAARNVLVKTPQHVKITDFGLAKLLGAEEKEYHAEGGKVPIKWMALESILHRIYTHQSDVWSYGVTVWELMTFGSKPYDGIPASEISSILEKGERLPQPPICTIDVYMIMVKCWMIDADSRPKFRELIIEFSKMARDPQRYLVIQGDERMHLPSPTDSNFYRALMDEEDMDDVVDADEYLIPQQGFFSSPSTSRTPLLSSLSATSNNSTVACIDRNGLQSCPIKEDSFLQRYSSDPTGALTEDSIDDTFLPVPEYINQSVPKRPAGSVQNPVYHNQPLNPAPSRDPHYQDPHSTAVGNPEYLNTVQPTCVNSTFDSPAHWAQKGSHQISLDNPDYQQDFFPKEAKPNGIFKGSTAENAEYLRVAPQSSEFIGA

Nc1cccc2c1CN(C1CCC(=O)NC1=O)C2=O (stereo unspecified) [LENALIDOMIDE]
IC50 (HCC827 [1]): > 10000 nM

O=C1CCC(N2Cc3c(NC(=O)CCCCN4CCN(c5ccc(Nc6cc7c(N8CCC(CO)CC8)nc(Nc8ccc(F)cc8)nc7cn6)nc5)CC4)cccc3C2=O)C(=O)N1 (stereo unspecified)
IC50 (HCC827 [1]): > 10000 nM

CN(C)C1CCN(c2ccc(Nc3cc4c(N5CCC(CO)CC5)nc(Nc5ccc(F)cc5)nc4cn3)nc2)CC1
Activity (HCC827 [2]): 13.43%
Activity (HCC827 [3]): 16.48%
Activity (HCC827 [4]): 7.72%
Activity (HCC827 [5]): 78.84%
Activity (HCC827 [6]): 8.5%
Activity (HCC827 [7]): 13.43%
viability at 1 µM (HCC827 [8]): 24.9%
Activity (HCC827 [9]): 53.88%
Activity (HCC827 [10]): 4.79%
Activity (HCC827 [11]): 7.56%
inhibition [12]: Active
Activity (HCC827 [13]): 43.7%
viability at 0.1 µM (HCC827 [14]): 39.5%
Activity (HCC827 [15]): 78.98%
Activity (HCC827 [16]): 8.35%

CN(C)C1CCN(c2ccc(Nc3cc4c(N5CCN(CCCCCCCC(=O)Nc6cccc7c6CN(C6CCC(=O)NC6=O)C7=O)CC5)nc(Nc5ccc(F)cc5)nc4cn3)nc2)CC1 (stereo unspecified)
IC50 (HCC827 [1]): 1450 nM

O=C1CCC(N2Cc3c(NC(=O)CCCCCN4CCN(c5ccc(Nc6cc7c(N8CCC(CO)CC8)nc(Nc8ccc(F)cc8)nc7cn6)nc5)CC4)cccc3C2=O)C(=O)N1 (stereo unspecified)
IC50 (HCC827 [1]): > 10000 nM

C=CC(=O)Nc1cc(Nc2nccc(-c3cn(C)c4ccccc34)n2)c(OC)cc1N(C)CCN(C)C [OSIMERTINIB]
Activity (HCC827 [2]): 10.16%
IC50 (HCC827 [1]): 36 nM
Activity (HCC827 [3]): 10.32%
Activity (HCC827 [4]): 8.26%
Activity (HCC827 [5]): 82.45%
IC50 (A549): 900 nM
Activity (HCC827 [6]): 5.07%
Activity (HCC827 [7]): 9.29%
viability at 1 µM (HCC827 [8]): 24%
Activity (HCC827 [9]): 59.59%
Activity (HCC827 [10]): 6.11%
Activity (HCC827 [11]): 9.71%
Activity (HCC827 [13]): 55.86%
viability at 0.1 µM (HCC827 [14]): 23.8%
Activity (HCC827 [15]): 80.12%
Activity (HCC827 [16]): 15.24%

CN(C)C1CCN(c2ccc(Nc3cc4c(N5CCN(CC(=O)NCCC(=O)Nc6cccc7c6CN(C6CCC(=O)NC6=O)C7=O)CC5)nc(Nc5ccc(F)cc5)nc4cn3)nc2)CC1 (stereo unspecified)
IC50 (HCC827 [1]): 4630 nM
IC50 (A-431): > 10000 nM

O=C1CCC(N2Cc3c(NC(=O)CCCCCCN4CCN(c5ccc(Nc6cc7c(N8CCC(CO)CC8)nc(Nc8ccc(F)cc8)nc7cn6)nc5)CC4)cccc3C2=O)C(=O)N1 (stereo unspecified)
IC50 (HCC827 [1]): 1210 nM

Cc1ncsc1-c1ccc(CNC(=O)[C@@H]2C[C@@H](O)CN2C(=O)[C@@H](NC(=O)CCCCN2CCN(c3ccc(Nc4cc5c(N6CCC(CO)CC6)nc(Nc6ccc(F)cc6)nc5cn4)nc3)CC2)C(C)(C)C)cc1
IC50 (HCC827 [1]): 1490 nM
